Experimental data as given in ChEMBL document CHEMBL3792337, “Cardiac Glycosides from the Seeds of Thevetia peruviana” (J Nat Prod, 2016).

Legend:
SW1990 = assay: Cytotoxicity against human SW1990 cells after 48 hrs by MTT assay; assay type: functional, cell-based; conditions: SW1990, 48 h
[1] = Cytotoxicity against human P15 cells after 48 hrs by MTT assay; assay type: functional, cell-based; conditions: P15, 48 h
[2] = Cytotoxicity against human LO2 cells after 48 hrs by MTT assay; assay type: cell-based; conditions: L02, 48 h
[3] = Cytotoxicity against human MGC803 cells after 48 hrs by MTT assay; assay type: functional, cell-based; conditions: MGC-803, 48 h

CO[C@H]1[C@@H](O)[C@H](O[C@H]2CC[C@@]3(C)[C@@H](CC[C@@H]4[C@@H]3CC[C@]3(C)[C@@H](C5=CC(=O)OC5)CC[C@]43O)C2)O[C@@H](C)[C@@H]1O[C@H]1O[C@@H](CO[C@@H]2O[C@H](CO)[C@@H](O)[C@H](O)[C@H]2O)[C@H](O)[C@@H](O)[C@@H]1O
IC50 (SW1990): > 10 µM
IC50 [1]: 10 µM
IC50 [2]: > 10 µM
IC50 [3]: 6.56 µM

CO[C@H]1[C@H](O)[C@H](O[C@H]2CC[C@@]3(C)[C@H](CC[C@@H]4[C@@H]3CC[C@]3(C)[C@@H](C5=CC(=O)OC5)CC[C@]43O)C2)O[C@@H](C)[C@@H]1O[C@H]1O[C@@H](CO[C@@H]2O[C@H](CO)[C@@H](O)[C@H](O)[C@H]2O)[C@H](O)[C@@H](O)[C@@H]1O
IC50 (SW1990): 4.56 µM
IC50 [1]: 3.97 µM
IC50 [2]: > 10 µM
IC50 [3]: > 10 µM

CO[C@H]1[C@H](O)[C@H](O[C@H]2CC[C@@]3(O)[C@H](CC[C@@H]4[C@@H]3CC[C@]3(C)[C@@H](C5=CC(=O)OC5)CC[C@]43O)C2)O[C@@H](C)[C@@H]1O
IC50 (SW1990): 0.49 µM
IC50 [1]: 1.52 µM
IC50 [2]: > 10 µM
IC50 [3]: 2.14 µM

CO[C@@H]1[C@@H](O)[C@@H](O[C@@H]2CC[C@]3(CO)[C@@H](CC[C@H]4[C@H]3CC[C@@]3(C)[C@H](C5=CC(=O)OC5)CC[C@@]43O)C2)O[C@H](C)[C@H]1O[C@@H]1O[C@H](CO)[C@@H](O)[C@H](O)[C@H]1O
IC50 (SW1990): 0.13 µM
IC50 [1]: 0.12 µM
IC50 [2]: > 10 µM
IC50 [3]: 0.32 µM

O=c1[nH]cc(F)c(=O)[nH]1 [FLUOROURACIL]
IC50 (SW1990): 126 µM
IC50 [1]: 89.2 µM
IC50 [2]: > 10 µM
IC50 [3]: 68.3 µM

CO[C@H]1[C@H](O)[C@H](O[C@H]2CC[C@@]3(C)[C@H](CC[C@@H]4[C@@H]3CC[C@]3(C)[C@@H](C5=CC(=O)OC5)CC[C@]43O)C2)O[C@@H](C)[C@@H]1O[C@H]1O[C@@H](CO)[C@H](O)[C@@H](O)[C@@H]1O
IC50 (SW1990): 0.62 µM
IC50 [1]: 0.4 µM
IC50 [2]: > 10 µM
IC50 [3]: 0.42 µM

CO[C@H]1[C@H](O)[C@H](O[C@H]2CC[C@@]3(O)[C@H](CC[C@@H]4[C@@H]3CC[C@]3(C)[C@@H](C5=CC(=O)OC5)CC[C@]43O)C2)O[C@@H](C)[C@@H]1O[C@H]1O[C@@H](CO)[C@H](O)[C@@H](O)[C@@H]1O
IC50 (SW1990): > 10 µM
IC50 [1]: > 10 µM
IC50 [2]: > 10 µM
IC50 [3]: > 10 µM

CO[C@H]1[C@H](OC(C)=O)[C@H](O[C@H]2CC[C@@]3(C)[C@@H](CC[C@@H]4[C@@H]3CC[C@]3(C)[C@@H](C5=CC(=O)OC5)CC[C@]43O)C2)O[C@@H](C)[C@@H]1O[C@H]1O[C@@H](CO[C@@H]2O[C@H](CO)[C@@H](O)[C@H](O)[C@H]2O)[C@H](O)[C@@H](O)[C@@H]1O
IC50 (SW1990): > 10 µM
IC50 [1]: > 10 µM
IC50 [2]: > 10 µM
IC50 [3]: 10 µM

CO[C@H]1[C@@H](O)[C@H](O[C@H]2CC[C@@]3(C)[C@H](CC[C@@H]4[C@@H]3CC[C@]3(C)[C@@H](C5=CC(=O)OC5)CC[C@]43O)C2)O[C@@H](C)[C@@H]1O[C@H]1O[C@@H](CO[C@@H]2O[C@H](CO)[C@@H](O)[C@H](O)[C@H]2O)[C@H](O)[C@@H](O)[C@@H]1O
IC50 (SW1990): 7.28 µM
IC50 [1]: 6.02 µM
IC50 [2]: > 10 µM
IC50 [3]: 1.93 µM

CO[C@H]1[C@H](OC(C)=O)[C@H](O[C@H]2CC[C@@]3(C)[C@H](CC[C@@H]4[C@@H]3CC[C@]3(C)[C@@H](C5=CC(=O)OC5)CC[C@]43O)C2)O[C@@H](C)[C@@H]1O[C@H]1O[C@@H](CO)[C@H](O)[C@@H](O)[C@@H]1O
IC50 (SW1990): 1.84 µM
IC50 [1]: 2.84 µM
IC50 [2]: > 10 µM
IC50 [3]: 3.21 µM

CO[C@@H]1[C@@H](O)[C@@H](O[C@@H]2CC[C@]3(OO)[C@@H](CC[C@H]4[C@H]3CC[C@@]3(C)[C@H](C5=CC(=O)OC5)CC[C@@]43O)C2)O[C@H](C)[C@H]1O[C@@H]1O[C@H](CO)[C@@H](O)[C@H](O)[C@H]1O
IC50 (SW1990): > 10 µM
IC50 [1]: 7.29 µM
IC50 [2]: > 10 µM
IC50 [3]: > 10 µM

CO[C@H]1[C@H](OC(C)=O)[C@H](O[C@H]2CC[C@@]3(C)[C@H](CC[C@@H]4[C@@H]3CC[C@]3(C)[C@@H](C5=CC(=O)OC5)CC[C@]43O)C2)O[C@@H](C)[C@@H]1O[C@H]1O[C@@H](CO[C@@H]2O[C@H](CO)[C@@H](O)[C@H](O)[C@H]2O)[C@H](O)[C@@H](O)[C@@H]1O
IC50 (SW1990): 5.82 µM
IC50 [1]: 4.75 µM
IC50 [2]: > 10 µM
IC50 [3]: 7.04 µM

CO[C@H]1[C@H](O)[C@H](O[C@@H]2CC[C@]3(C(=O)O)[C@@H](CC[C@H]4[C@H]3CC[C@@]3(C)[C@H](C5=CC(=O)OC5)CC[C@@]43O)C2)O[C@@H](C)[C@@H]1O[C@H]1O[C@@H](CO[C@@H]2O[C@H](CO)[C@@H](O)[C@H](O)[C@H]2O)[C@H](O)[C@@H](O)[C@@H]1O
IC50 (SW1990): > 10 µM
IC50 [1]: > 10 µM
IC50 [2]: > 10 µM
IC50 [3]: > 10 µM

CO[C@@H]1[C@@H](O)[C@@H](O[C@@H]2CC[C@]3(C=O)[C@@H](CC[C@H]4[C@H]3CC[C@@]3(C)[C@H](C5=CC(=O)OC5)CC[C@@]43O)C2)O[C@H](C)[C@H]1O[C@@H]1O[C@H](CO)[C@@H](O)[C@H](O)[C@H]1O
IC50 (SW1990): 0.64 µM
IC50 [1]: 1.46 µM
IC50 [2]: > 10 µM
IC50 [3]: 5.32 µM

CO[C@H]1[C@H](O)[C@H](O[C@H]2CC[C@@]3(C)[C@@H](CC[C@@H]4[C@@H]3CC[C@]3(C)[C@@H](C5=CC(=O)OC5)CC[C@]43O)C2)O[C@@H](C)[C@@H]1O[C@H]1O[C@@H](CO)[C@H](O)[C@@H](O)[C@@H]1O
IC50 (SW1990): 4.54 µM
IC50 [1]: 2.68 µM
IC50 [2]: > 10 µM
IC50 [3]: 3.42 µM

CO[C@H]1[C@H](OC(C)=O)[C@H](O[C@@H]2CC[C@]3(C=O)[C@@H](CC[C@H]4[C@H]3CC[C@@]3(C)[C@H](C5=CC(=O)OC5)CC[C@@]43O)C2)O[C@@H](C)[C@@H]1O[C@H]1O[C@@H](CO[C@@H]2O[C@H](CO)[C@@H](O)[C@H](O)[C@H]2O)[C@H](O)[C@@H](O)[C@@H]1O
IC50 (SW1990): > 10 µM
IC50 [1]: > 10 µM
IC50 [2]: > 10 µM
IC50 [3]: 9.53 µM

CO[C@H]1[C@H](O)[C@H](O[C@H]2CC[C@@]3(O)[C@H](CC[C@@H]4[C@@H]3CC[C@]3(C)[C@@H](C5=CC(=O)OC5)CC[C@]43O)C2)O[C@@H](C)[C@@H]1O[C@@H]1O[C@H](CO[C@@H]2O[C@H](CO)[C@@H](O)[C@H](O)[C@H]2O)[C@@H](O)[C@H](O)[C@H]1O
IC50 (SW1990): > 10 µM
IC50 [1]: > 10 µM
IC50 [2]: > 10 µM
IC50 [3]: > 10 µM

CO[C@H]1[C@H](OC(C)=O)[C@H](O[C@@H]2CC[C@]3(C=O)[C@@H](CC[C@H]4[C@H]3CC[C@@]3(C)[C@H](C5=CC(=O)OC5)CC[C@@]43O)C2)O[C@@H](C)[C@@H]1O[C@H]1O[C@@H](CO)[C@H](O)[C@@H](O)[C@@H]1O
IC50 (SW1990): 0.97 µM
IC50 [1]: 0.59 µM
IC50 [2]: > 10 µM
IC50 [3]: 1.23 µM

CO[C@@H]1[C@@H](O)[C@@H](O[C@H]2CC[C@@]3(C(=O)O)[C@H](CC[C@@H]4[C@@H]3CC[C@]3(C)[C@@H](C5=CC(=O)OC5)CC[C@]43O)C2)O[C@H](C)[C@H]1O[C@@H]1O[C@H](CO)[C@@H](O)[C@H](O)[C@H]1O
IC50 (SW1990): > 10 µM
IC50 [1]: > 10 µM
IC50 [2]: > 10 µM
IC50 [3]: > 10 µM

CO[C@H]1[C@H](O)[C@H](O[C@H]2CC[C@@]3(C=O)[C@H](CC[C@@H]4[C@@H]3CC[C@]3(C)[C@@H](C5=CC(=O)OC5)CC[C@]43O)C2)O[C@@H](C)[C@@H]1O [PERUVOSIDE]
IC50 (SW1990): 0.02 µM
IC50 [1]: 0.03 µM
IC50 [2]: > 10 µM
IC50 [3]: 0.02 µM

CO[C@@H]1[C@@H](O)[C@@H](O[C@@H]2CC[C@]3(CO)[C@@H](CC[C@H]4[C@H]3CC[C@@]3(C)[C@H](C5=CC(=O)OC5)CC[C@@]43O)C2)O[C@H](C)[C@H]1O[C@@H]1O[C@H](CO[C@H]2O[C@@H](CO)[C@H](O)[C@@H](O)[C@@H]2O)[C@@H](O)[C@H](O)[C@H]1O
IC50 (SW1990): 7.7 µM
IC50 [1]: 10 µM
IC50 [2]: > 10 µM
IC50 [3]: 9.52 µM

CO[C@@H]1[C@H](O)[C@@H](O[C@@H]2CC[C@]3(CO)[C@@H](CC[C@H]4[C@H]3CC[C@@]3(C)[C@H](C5=CC(=O)OC5)CC[C@@]43O)C2)O[C@H](C)[C@H]1O[C@@H]1O[C@H](CO)[C@@H](O)[C@H](O)[C@H]1O
IC50 (SW1990): 2.14 µM
IC50 [1]: 4.91 µM
IC50 [2]: > 10 µM
IC50 [3]: 5.75 µM

CO[C@H]1[C@H](O)[C@H](O[C@H]2CC[C@@]3(OO)[C@H](CC[C@@H]4[C@@H]3CC[C@]3(C)[C@@H](C5=CC(=O)OC5)CC[C@]43O)C2)O[C@@H](C)[C@@H]1O[C@@H]1O[C@H](CO[C@@H]2O[C@H](CO)[C@@H](O)[C@H](O)[C@H]2O)[C@@H](O)[C@H](O)[C@H]1O
IC50 (SW1990): 3.62 µM
IC50 [1]: > 10 µM
IC50 [2]: > 10 µM
IC50 [3]: > 10 µM

CO[C@H]1[C@H](O)[C@H](O[C@H]2CC[C@@]3(C)[C@@H](CC[C@@H]4[C@@H]3CC[C@]3(C)[C@@H](C5=CC(=O)OC5)CC[C@]43O)C2)O[C@@H](C)[C@@H]1O[C@H]1O[C@@H](CO[C@@H]2O[C@H](CO)[C@@H](O)[C@H](O)[C@H]2O)[C@H](O)[C@@H](O)[C@@H]1O
IC50 (SW1990): > 10 µM
IC50 [1]: 10 µM
IC50 [2]: > 10 µM
IC50 [3]: 8.32 µM

CO[C@H]1[C@H](O)[C@H](O[C@H]2CC[C@@]3(C(=O)O)[C@H](CC[C@@H]4[C@@H]3CC[C@]3(C)[C@@H](C5=CC(=O)OC5)CC[C@]43O)C2)O[C@@H](C)[C@@H]1O
IC50 (SW1990): > 10 µM
IC50 [1]: > 10 µM
IC50 [2]: > 10 µM
IC50 [3]: 3.93 µM
